Experimental data as given in PubChem BioAssay (NCI).
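Growth conditions: 96-well plates. Treatment: test compound, 48 hours, 5 concentrations. Analysis: linear interpolation between bracketing concentrations; unreached endpoints set to highest concentration. TGI denotes the concentration required for complete inhibition of growth.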

Experiments:
Assay in all cases: NCI anticancer screen, dose series, 48 h
[1] = system: M14 melanoma
[2] = system: NCI-H522 lung
[3] = system: MALME-3M melanoma
[4] = system: RPMI-8226 leukemia
[5] = system: HOP-18 NSCLC
[6] = system: OVCAR-3 ovarian
[7] = system: SN12C renal
[8] = system: SNB-78 CNS
[9] = system: CCRF-CEM leukemia
[10] = system: SK-MEL-2 melanoma
[11] = system: UACC-257 melanoma
[12] = system: DMS 273 small cell lung
[13] = system: DMS 114 small cell lung
[14] = system: KM20L2 colon
[15] = system: SF-295 CNS
[16] = system: LXFL 529 NSCLC
[17] = system: SR leukemia
[18] = system: OVCAR-5 ovarian
[19] = system: HOP-92 NSCLC
[20] = system: UO-31 renal
[21] = system: HT29 colon
[22] = system: COLO 205 colon
[23] = system: HL-60(TB) leukemia
[24] = system: 786-0 renal
[25] = system: RXF 393 renal
[26] = system: HCC-2998 colon
[27] = system: SK-MEL-28 melanoma
[28] = system: SF-539 CNS
[29] = system: OVCAR-4 ovarian
[30] = system: LOX IMVI melanoma
[31] = system: XF 498 CNS
[32] = system: NCI-H460 lung
[33] = system: DLD-1 colon
[34] = system: U251 CNS
[35] = system: IGROV1 ovarian
[36] = system: SK-MEL-5 melanoma
[37] = system: A549 NSCLC
[38] = system: EKVX NSCLC
[39] = system: SNB-75 CNS
[40] = system: NCI-H23 lung
[41] = system: UACC-62 melanoma
[42] = system: SK-OV-3 ovarian
[43] = system: SW-620 colon
[44] = system: RXF-631 renal
[45] = system: MOLT-4 leukemia
[46] = system: NCI-H226 lung
[47] = system: HOP-62 NSCLC
[48] = system: K-562 leukemia
[49] = system: ACHN renal
[50] = system: KM12 colon
[51] = system: OVCAR-8 ovarian
[52] = system: SNB-19 CNS
[53] = system: M19-MEL melanoma
[54] = system: A498 renal
[55] = system: TK-10 renal
[56] = system: SF-268 CNS
[57] = system: HCT-116 colon
[58] = system: CAKI-1 renal
[59] = system: HCT-15 colon

COC(=O)C(C(=O)C(=O)Nc1ccc(Br)cc1)c1nc2ccc(Cl)cc2[nH]c1=O (configuration not stated)
TGI [1]: > 100 µM | TGI [2]: > 100 µM | TGI [3]: > 100 µM | TGI [4]: > 100 µM | TGI [5]: > 100 µM | TGI [6]: > 100 µM | TGI [7]: > 100 µM | TGI [8]: > 100 µM | TGI [9]: > 100 µM | TGI [10]: > 100 µM | TGI [11]: > 100 µM | TGI [12]: > 100 µM | TGI [13]: > 100 µM | TGI [14]: > 100 µM | TGI [15]: > 100 µM | TGI [16]: > 100 µM | TGI [17]: > 100 µM | TGI [18]: > 100 µM | TGI [19]: > 100 µM | TGI [20]: > 100 µM | TGI [21]: > 72.2 µM | TGI [22]: > 61.3 µM | TGI [23]: > 100 µM | TGI [24]: > 100 µM | TGI [25]: > 100 µM | TGI [26]: > 100 µM | TGI [27]: > 100 µM | TGI [28]: > 100 µM | TGI [29]: > 71.3 µM | TGI [30]: > 100 µM | TGI [31]: > 100 µM | TGI [32]: > 100 µM | TGI [33]: > 100 µM | TGI [34]: > 100 µM | TGI [35]: > 100 µM | TGI [36]: > 100 µM | TGI [37]: > 100 µM | TGI [38]: > 100 µM | TGI [39]: > 100 µM | TGI [40]: > 100 µM | TGI [41]: > 100 µM | TGI [42]: > 100 µM | TGI [43]: > 41.4 µM | TGI [44]: > 100 µM | TGI [45]: > 100 µM | TGI [46]: > 100 µM | TGI [47]: > 100 µM | TGI [48]: > 100 µM | TGI [49]: > 100 µM | TGI [50]: > 100 µM | TGI [51]: > 100 µM | TGI [52]: > 100 µM | TGI [53]: > 100 µM | TGI [54]: > 100 µM | TGI [55]: > 100 µM | TGI [56]: > 100 µM | TGI [57]: > 100 µM | TGI [58]: > 100 µM | TGI [59]: > 55.9 µM

O=C(O)C1(C(=O)O)CC1
TGI [1]: > 100 µM | TGI [2]: > 100 µM | TGI [3]: > 100 µM | TGI [4]: > 100 µM | TGI [5]: > 100 µM | TGI [6]: > 100 µM | TGI [7]: > 100 µM | TGI [8]: > 100 µM | TGI [9]: > 100 µM | TGI [10]: > 100 µM | TGI [11]: > 100 µM | TGI [12]: > 100 µM | TGI [13]: > 100 µM | TGI [14]: > 100 µM | TGI [15]: > 100 µM | TGI [16]: > 100 µM | TGI [20]: > 100 µM | TGI [22]: > 100 µM | TGI [23]: > 100 µM | TGI [24]: > 100 µM | TGI [25]: > 100 µM | TGI [26]: > 100 µM | TGI [27]: > 100 µM | TGI [28]: > 100 µM | TGI [29]: > 100 µM | TGI [31]: > 100 µM | TGI [32]: > 100 µM | TGI [33]: > 100 µM | TGI [34]: > 100 µM | TGI [35]: > 100 µM | TGI [36]: > 100 µM | TGI [37]: > 100 µM | TGI [38]: > 100 µM | TGI [39]: > 100 µM | TGI [40]: > 100 µM | TGI [41]: > 100 µM | TGI [42]: > 100 µM | TGI [43]: > 100 µM | TGI [44]: > 100 µM | TGI [45]: > 100 µM | TGI [47]: > 100 µM | TGI [48]: > 100 µM | TGI [49]: > 100 µM | TGI [50]: > 100 µM | TGI [51]: > 100 µM | TGI [52]: > 100 µM | TGI [53]: > 100 µM | TGI [54]: > 100 µM | TGI [55]: > 100 µM | TGI [56]: > 100 µM | TGI [57]: > 100 µM | TGI [58]: > 100 µM | TGI [59]: > 100 µM
